In EP1200093B1, “USE OF 2-AMINO-4-(4-FLUORONAPHTH-1-YL)-6-ISOPROPYLPYRIMIDINE IN THE TREATMENT OF GI DISORDERS” (priority 1999, dated 2001):
Where “and” joins values, the source holds several entries; their conditions need not be identical. Identical values can stand only once.

Legend:
[1] = biological target: T1, 5-HT receptor in human colon longitudinal muscle (Homo sapiens, UniProt P41595); assay: cell-based; type: cell-based
T1 construct: Longitudinal muscle strips (2mm wide by 20mm long) were then cut from the tissue between the taenia coli; from tissue; host or cells: human colon longitudinal muscle strips, electrically stimulated
T1 sequence (P41595 whole entry): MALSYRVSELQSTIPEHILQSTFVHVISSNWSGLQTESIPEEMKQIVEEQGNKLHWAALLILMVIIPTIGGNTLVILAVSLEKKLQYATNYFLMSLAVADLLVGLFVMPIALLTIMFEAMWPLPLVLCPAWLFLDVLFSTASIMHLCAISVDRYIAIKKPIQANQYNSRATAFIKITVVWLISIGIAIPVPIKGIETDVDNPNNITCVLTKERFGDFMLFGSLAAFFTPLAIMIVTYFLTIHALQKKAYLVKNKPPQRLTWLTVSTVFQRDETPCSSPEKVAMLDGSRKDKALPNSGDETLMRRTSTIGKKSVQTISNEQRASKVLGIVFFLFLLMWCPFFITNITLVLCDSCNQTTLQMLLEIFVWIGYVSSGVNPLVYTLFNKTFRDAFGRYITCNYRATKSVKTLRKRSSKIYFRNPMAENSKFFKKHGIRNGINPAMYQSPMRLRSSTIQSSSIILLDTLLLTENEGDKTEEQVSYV

5-HT2B [2] = biological target: T2, 5-HT2B (Homo sapiens, UniProt P41595); settings: human receptor, comparison data; cited from earlier work
T2 sequence (P41595 whole entry): as above

5-HT4 [3] = biological target: T3, 5-HT4 (Homo sapiens, UniProt Q13639); settings: human receptor, comparison data; cited from earlier work
T3 sequence (Q13639 whole entry): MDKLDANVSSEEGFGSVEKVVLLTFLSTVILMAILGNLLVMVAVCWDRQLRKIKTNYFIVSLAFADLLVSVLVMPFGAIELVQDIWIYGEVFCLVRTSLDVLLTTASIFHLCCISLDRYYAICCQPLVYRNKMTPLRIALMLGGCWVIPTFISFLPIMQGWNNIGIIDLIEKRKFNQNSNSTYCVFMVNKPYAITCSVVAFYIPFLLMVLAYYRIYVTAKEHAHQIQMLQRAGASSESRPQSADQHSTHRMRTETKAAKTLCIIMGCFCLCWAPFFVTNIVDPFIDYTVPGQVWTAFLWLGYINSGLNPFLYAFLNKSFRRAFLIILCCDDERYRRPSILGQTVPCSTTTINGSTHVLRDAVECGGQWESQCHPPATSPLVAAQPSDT

5-HT4 [4] = biological target: T3, 5-HT4; settings: * responses to 5-HT in human isolated tissues; cited from earlier work
5-HT2C = biological target: T4, 5-HT2C (Homo sapiens, UniProt P28335); settings: * responses to 5-HT in human isolated tissues; cited from earlier work
T4 sequence (P28335 33-458): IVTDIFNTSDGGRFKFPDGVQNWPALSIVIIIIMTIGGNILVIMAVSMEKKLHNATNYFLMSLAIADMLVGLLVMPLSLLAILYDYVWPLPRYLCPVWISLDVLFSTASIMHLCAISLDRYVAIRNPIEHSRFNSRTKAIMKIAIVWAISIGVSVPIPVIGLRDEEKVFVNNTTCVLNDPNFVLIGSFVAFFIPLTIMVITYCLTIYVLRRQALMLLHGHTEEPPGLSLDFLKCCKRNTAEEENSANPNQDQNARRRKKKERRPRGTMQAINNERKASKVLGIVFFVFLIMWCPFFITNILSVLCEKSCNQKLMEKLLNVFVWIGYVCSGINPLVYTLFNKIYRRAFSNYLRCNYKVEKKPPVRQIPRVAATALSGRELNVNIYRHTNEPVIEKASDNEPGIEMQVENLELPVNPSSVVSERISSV

5-HT2B [5] = biological target: T2, 5-HT2B; settings: * responses to 5-HT in human isolated tissues; cited from earlier work
[6] = tested on: 5-HT receptor in human colon longitudinal muscle; assay: cell-based; type: cell-based

SMILES | EC50 [1] | mean pEC50, 5-HT2B (5-HT2B [2]) | mean pEC50, 5-HT4 (5-HT4 [3]) | mean pKB or pA2, 5-HT4 (5-HT4 [4]) | other results
Cc1[nH]c2ccc(O)cc2c1CCN [2-Me-5-HT] | 100 nM | 6.7 | 6.0 |  | 
COc1ccc2[nH]cc(CCN)c2c1 [5-MeOT] | 158 nM | 7.6 | 6.2 |  | 
CC(N)Cc1c[nH]c2ccc(O)cc12 (stereo not drawn) [Alpha-Me-5-HT] | 3.16 nM | 8.4 | 6.2 |  | 
O=C(c1ccc(F)cc1)C1CCN(CCn2c(=O)[nH]c3ccccc3c2=O)CC1 [Ketanserin] |  |  |  | 4.7* | 
CSc1ccc2c(c1)C(N1CCN(C)CC1)Cc1ccccc1S2 (stereo not shown) [Methiothepin] |  |  |  | <6.0* | 
CC[C@@H](CO)NC(=O)[C@@H]1C=C2c3cccc4c3c(cn4C)C[C@H]2N(C)C1 [Methysergide] |  |  |  | <5.0* | mean pKB or pA2, 5-HT2C (5-HT2C): 8.9*
CC(C)c1cc(-c2ccc(F)c3ccccc23)nc(N)n1 [RS127445, 2-amino-4-(4-fluoronaphth-1-yl)-6-isopropylpyrimidine] |  |  |  |  | Kb [1]: 0.316 nM and 0.355 nM; Schild analysis, slope of plot ([1]; antagonism of 5-HT, RS127445 0.3nM to 100nM): 0.93±0.17
Cn1ccc2cc3c(cc21)CCN3C(=O)Nc1cccnc1 [SB 206553] |  |  |  |  | Affinity (pKB) at the 5-HT receptor in human colon longitudinal muscle ([1]; antagonism of 5-HT in electrically-stimulated strips, at least 3 donors (RS127445: n>4 donors)): 8.5±0.1; mean pKB or pA2, 5-HT2B (5-HT2B [5]): 9.0*
Cc1cc2c(cc1Cl)N(C(=O)Nc1ccc(Oc3cccnc3C)nc1)CC2 [SB 242084] |  |  |  |  | Kb [1]: 501 nM
CN1[C@@H]2CC[C@H]1C[C@@H](OC(=O)C(CO)c1ccccc1)C2 (stereo partly shown) [atropine] |  |  |  |  | effect on electrically-induced contractile response [6]: inhibited
